In ChEMBL document CHEMBL1148378 (J Med Chem, 2004):

How the values were obtained:
Stromelysin-3 = molecular target: T1, Stromelysin-3 (Mus musculus, UniProt Q02853); experiment: Inhibition of Matrix metalloprotease-11
T1 sequence (Q02853 whole entry): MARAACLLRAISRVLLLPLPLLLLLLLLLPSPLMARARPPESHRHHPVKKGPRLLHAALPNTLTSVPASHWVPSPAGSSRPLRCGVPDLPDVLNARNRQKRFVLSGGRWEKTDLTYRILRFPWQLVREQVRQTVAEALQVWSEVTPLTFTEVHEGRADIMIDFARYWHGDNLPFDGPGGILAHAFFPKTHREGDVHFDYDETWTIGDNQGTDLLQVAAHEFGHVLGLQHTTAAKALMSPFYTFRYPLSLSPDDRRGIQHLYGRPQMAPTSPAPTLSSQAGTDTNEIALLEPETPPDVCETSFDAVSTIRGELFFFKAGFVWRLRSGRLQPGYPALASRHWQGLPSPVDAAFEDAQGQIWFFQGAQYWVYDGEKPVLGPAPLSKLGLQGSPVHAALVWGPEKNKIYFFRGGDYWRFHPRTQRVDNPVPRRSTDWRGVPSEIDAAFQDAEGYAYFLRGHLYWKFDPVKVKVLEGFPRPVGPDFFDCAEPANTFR

[1] = molecular target: 72 kDa type IV collagenase (Homo sapiens, UniProt P08253); experiment: Inhibition of Matrix metalloprotease-2
Chain of 72 kDa type IV collagenase (P08253 whole entry): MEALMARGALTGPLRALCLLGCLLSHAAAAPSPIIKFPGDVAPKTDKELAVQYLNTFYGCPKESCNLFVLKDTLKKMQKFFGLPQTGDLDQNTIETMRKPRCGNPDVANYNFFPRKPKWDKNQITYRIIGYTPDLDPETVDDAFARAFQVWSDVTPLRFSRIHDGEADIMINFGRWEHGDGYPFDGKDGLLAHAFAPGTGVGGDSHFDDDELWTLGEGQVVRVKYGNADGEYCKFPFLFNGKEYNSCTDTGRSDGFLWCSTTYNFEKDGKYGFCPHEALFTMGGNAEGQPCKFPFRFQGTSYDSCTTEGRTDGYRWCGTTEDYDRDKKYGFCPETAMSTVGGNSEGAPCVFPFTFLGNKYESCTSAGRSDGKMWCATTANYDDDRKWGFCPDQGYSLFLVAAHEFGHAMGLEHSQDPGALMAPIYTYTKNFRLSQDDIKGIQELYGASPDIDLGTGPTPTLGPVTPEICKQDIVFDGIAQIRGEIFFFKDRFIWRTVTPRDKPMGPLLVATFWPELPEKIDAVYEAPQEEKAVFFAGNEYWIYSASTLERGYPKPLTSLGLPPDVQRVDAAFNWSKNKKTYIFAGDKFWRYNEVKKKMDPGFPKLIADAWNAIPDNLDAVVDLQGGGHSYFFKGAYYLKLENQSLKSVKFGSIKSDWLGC

Neutrophil collagenase = Neutrophil collagenase (Homo sapiens, UniProt P22894); experiment: Inhibition of matrix metalloprotease-8
Chain of Neutrophil collagenase (P22894 whole entry): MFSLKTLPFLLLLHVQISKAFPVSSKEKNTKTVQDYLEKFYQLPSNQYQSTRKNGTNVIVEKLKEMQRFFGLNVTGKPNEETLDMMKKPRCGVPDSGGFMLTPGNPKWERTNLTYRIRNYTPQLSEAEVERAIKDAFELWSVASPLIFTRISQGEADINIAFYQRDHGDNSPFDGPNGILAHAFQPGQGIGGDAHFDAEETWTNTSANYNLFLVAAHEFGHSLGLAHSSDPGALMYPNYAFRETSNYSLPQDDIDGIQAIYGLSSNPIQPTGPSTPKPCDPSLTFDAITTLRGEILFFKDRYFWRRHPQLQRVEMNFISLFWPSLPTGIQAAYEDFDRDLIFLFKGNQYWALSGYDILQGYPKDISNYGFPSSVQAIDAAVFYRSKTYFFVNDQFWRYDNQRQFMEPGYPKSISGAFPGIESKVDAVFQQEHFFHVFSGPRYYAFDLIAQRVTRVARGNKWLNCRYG

Collagenase 3 = Collagenase 3 (Homo sapiens, UniProt P45452); experiment: Inhibition of matrix metalloprotease-13
[2] = molecular target: Matrix metalloproteinase-9 (Homo sapiens, UniProt P14780); experiment: Inhibition of Matrix metalloprotease-9
Chain of Matrix metalloproteinase-9 (P14780 whole entry): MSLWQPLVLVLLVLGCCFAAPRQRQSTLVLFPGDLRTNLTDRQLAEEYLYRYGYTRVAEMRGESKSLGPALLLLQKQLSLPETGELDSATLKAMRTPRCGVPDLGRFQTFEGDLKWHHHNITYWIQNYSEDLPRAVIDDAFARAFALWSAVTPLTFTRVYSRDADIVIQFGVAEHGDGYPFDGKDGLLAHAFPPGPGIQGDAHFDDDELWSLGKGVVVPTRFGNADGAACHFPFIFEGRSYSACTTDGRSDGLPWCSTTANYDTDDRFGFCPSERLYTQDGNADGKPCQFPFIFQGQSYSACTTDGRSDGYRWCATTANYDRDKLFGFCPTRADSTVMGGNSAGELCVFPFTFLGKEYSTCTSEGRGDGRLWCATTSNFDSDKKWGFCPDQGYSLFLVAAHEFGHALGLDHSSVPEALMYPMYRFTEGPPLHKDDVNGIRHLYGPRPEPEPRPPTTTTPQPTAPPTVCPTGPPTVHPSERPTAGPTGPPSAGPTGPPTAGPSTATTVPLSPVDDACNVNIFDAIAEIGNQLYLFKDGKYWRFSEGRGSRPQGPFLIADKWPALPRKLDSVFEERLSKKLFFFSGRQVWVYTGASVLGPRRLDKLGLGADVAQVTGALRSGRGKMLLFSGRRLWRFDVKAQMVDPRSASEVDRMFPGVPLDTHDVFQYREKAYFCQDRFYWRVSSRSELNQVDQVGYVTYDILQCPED

[3] = molecular target: Matrix metalloproteinase-14 (Homo sapiens, UniProt P50281); experiment: Inhibition of Matrix metalloprotease-14
Matrilysin = molecular target: T2, Matrilysin (Homo sapiens, UniProt P09237); experiment: Inhibition of Matrix metalloprotease-7
T2 sequence (P09237 whole entry): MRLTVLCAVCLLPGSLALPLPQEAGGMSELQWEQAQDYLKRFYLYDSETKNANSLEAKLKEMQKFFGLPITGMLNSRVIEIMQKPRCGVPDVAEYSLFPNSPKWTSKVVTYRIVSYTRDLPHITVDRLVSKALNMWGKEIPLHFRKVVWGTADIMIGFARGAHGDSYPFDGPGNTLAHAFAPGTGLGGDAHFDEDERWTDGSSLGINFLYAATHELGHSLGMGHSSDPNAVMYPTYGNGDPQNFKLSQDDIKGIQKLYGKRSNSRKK

Interstitial collagenase = molecular target: T3, Interstitial collagenase (Homo sapiens, UniProt P03956); experiment: Inhibition of matrix metalloprotease-1
T3 sequence (P03956 whole entry): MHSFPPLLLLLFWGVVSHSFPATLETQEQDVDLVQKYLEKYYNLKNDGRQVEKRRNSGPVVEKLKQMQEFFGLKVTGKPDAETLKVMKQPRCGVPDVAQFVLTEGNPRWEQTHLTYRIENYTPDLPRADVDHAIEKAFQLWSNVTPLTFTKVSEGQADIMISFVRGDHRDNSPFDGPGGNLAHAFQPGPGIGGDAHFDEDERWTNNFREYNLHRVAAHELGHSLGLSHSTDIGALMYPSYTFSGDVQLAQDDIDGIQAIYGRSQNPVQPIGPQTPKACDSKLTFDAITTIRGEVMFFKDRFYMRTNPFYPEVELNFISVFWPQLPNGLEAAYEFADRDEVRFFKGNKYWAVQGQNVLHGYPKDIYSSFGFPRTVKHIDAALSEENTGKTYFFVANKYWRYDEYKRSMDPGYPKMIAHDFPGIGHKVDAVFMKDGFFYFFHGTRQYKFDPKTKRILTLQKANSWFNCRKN

Ki (Stromelysin-3) [µM] | Ki [1] [µM] | Ki (Neutrophil collagenase) [µM] | Ki (Collagenase 3) [µM] | Ki [2] [µM] | Ki [3] [µM] | Ki (Matrilysin) [µM] | Ki (Interstitial collagenase) [µM] | Structure (SMILES)
0.41 | 200 | 200 | 200 | 148 | 30 |  |  | NC(=O)C(Cc1c[nH]c2ccccc12)NC(=O)C(CSc1ccccc1OC(F)(F)F)CP(=O)(O)C(Cc1ccccc1)NC(=O)OCc1ccccc1 (stereo not given)
0.11 | 4.65 | 18.4 | 4.7 | 3.91 | 30.1 |  |  | NC(=O)C(Cc1c[nH]c2ccccc12)NC(=O)C(CSc1ccccc1Br)CP(=O)(O)C(Cc1ccccc1)NC(=O)OCc1ccccc1 (stereo not given)
 |  |  |  |  |  | > 2 | > 2 | NC(=O)C(Cc1c[nH]c2ccccc12)NC(=O)C(CCCc1ccccc1)CP(=O)(O)C(Cc1ccccc1)NC(=O)OCc1ccccc1 (stereo not given)
0.23 | 30 | 38.9 | 15.7 | 35.6 | 160 |  |  | COc1ccccc1SCC(CP(=O)(O)C(Cc1ccccc1)NC(=O)OCc1ccccc1)C(=O)NC(Cc1c[nH]c2ccccc12)C(N)=O (stereo not given)
